Results as given in ChEMBL document CHEMBL1201862, “PubChem BioAssay data set” (2004).
Values joined by “and” are separate entries in the source; they are usually repeats but may differ in a detail not shown here. Identical values can stand only once. Active and inactive are the calls of the source. Rule as the data show it, for most assays here: actives have a measured EC50 and inactives only a lower limit.

How the values were obtained:
[1] = Luminescence Cell-Based Dose Response HTS to Identify Activators of Luciferase Translation or Activity in H4 […] Cells. [Related pubchem assays: 1829 (Project Summary), 1814 (Primary HTS)]; format: functional
[2] = tested on: H4; assay: Luminescence Cell-Based Dose Response HTS to Identify Activators of 5'UTR Stem-Loop Driven Prion Protein mRNA Translation in H4 Neuroglioblastoma Cells. [Related pubchem assays: 1829 (Project Summary), 1814 (Primary HTS)]; format: functional; settings: Homo sapiens
[3] = Luminescence Cell-Based Dose Confirmation HTS to Identify Activators of 5'UTR Stem-Loop Driven Alpha-Synuclein mRNA Translation in H4 Neuroglioblastoma Cells. [Related pubchem assays: 1829 (Project Summary), 1814 (Primary HTS)]; format: functional
[4] = biological target: T1, Streptokinase A (Streptococcus pyogenes serotype M1, UniProt P10520); assay: viability-normalized secreted streptokinase activity reduction – plasminogen activation absorbance, OD405, dose response (AID 1914); format: functional, Streptococcus pyogenes M1 GAS;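 also: secreted streptokinase activity via plasminogen activation per viability signal from cell pellet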
T1 sequence (P10520 whole entry): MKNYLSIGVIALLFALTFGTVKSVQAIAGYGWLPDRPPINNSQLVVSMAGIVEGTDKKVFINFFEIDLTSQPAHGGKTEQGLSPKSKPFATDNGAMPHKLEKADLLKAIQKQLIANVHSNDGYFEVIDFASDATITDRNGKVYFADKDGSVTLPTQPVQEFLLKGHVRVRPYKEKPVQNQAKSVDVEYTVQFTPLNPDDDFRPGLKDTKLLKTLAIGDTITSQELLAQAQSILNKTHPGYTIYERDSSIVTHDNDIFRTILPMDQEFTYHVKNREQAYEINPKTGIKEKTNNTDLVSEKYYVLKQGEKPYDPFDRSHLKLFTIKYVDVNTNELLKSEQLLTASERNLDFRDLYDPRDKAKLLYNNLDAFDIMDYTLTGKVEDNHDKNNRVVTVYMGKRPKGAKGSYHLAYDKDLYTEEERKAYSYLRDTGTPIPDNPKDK

[5] = tested on: H9c2; assay: cells; format: functional, cell-based; settings: Rattus norvegicus, H9c2, Myocardium;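 also: confirmatory concentration-response retest of ultra-high-throughput screening hits for modulation of myocardial damage; cell death induced by hydrogen peroxide oxidative stress; compound pretreatment for 60 min then peroxide exposure for 2 h; potency is for protecting the cells against peroxide damage rather than for killing them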
[6] = tested on: Streptococcus; assay: GAS UMAA2166 growth inhibition – luminescence, BacTiterGlo, counter-screen for streptokinase expression inhibitor project, dose response (AID 1915); format: functional, organism-based;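 also: potency for reduction of bacterial viability or growth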
[7] = tested on: Streptococcus sp. 'group A'; assay: Streptococcus pyogenes SK(-)GAS viability under kanamycin – luminescence, BacTiterGlo, confirmation, counter-screen for streptokinase expression inhibitor project, dose response (AID 1900); format: functional, organism-based
[8] = fluconazole-exposed Candida albicans growth modulators – fluorescence, retest, confirmation (AID 2467); format: functional, cell-based
[9] = NIH-3T3 fibroblast cytotoxicity, dose response, cytotoxicity control, cell-based, fluorescence, Alamar Blue, secondary assay (AID 2327); format: functional;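 also: NIH-3T3 mouse fibroblasts cultured with fluconazole at 8 µg/mL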
[10] = biological target: T2, Corticotropin-releasing factor receptor 2/Corticotropin-releasing factor-binding protein (Homo sapiens, UniProt P24387+Q13324); assay: Dose Response confirmation of uHTS hits for small molecule antagonists of the CRF-binding protein and CRF-R2 receptor complex.; format: functional; settings: read-out: IC50_Mean
T2 sequence (Q13324 whole entry): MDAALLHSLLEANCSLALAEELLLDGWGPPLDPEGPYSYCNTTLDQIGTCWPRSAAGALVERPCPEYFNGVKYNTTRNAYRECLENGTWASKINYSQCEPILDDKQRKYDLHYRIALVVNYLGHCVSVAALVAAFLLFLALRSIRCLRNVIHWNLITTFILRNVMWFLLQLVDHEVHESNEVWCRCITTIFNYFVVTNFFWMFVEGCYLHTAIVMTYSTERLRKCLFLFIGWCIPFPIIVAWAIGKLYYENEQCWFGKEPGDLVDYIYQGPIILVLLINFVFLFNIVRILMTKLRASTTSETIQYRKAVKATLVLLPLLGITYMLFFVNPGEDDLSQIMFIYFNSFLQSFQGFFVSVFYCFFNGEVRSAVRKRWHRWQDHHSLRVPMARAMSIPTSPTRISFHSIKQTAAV
T2 sequence (P24387 whole entry): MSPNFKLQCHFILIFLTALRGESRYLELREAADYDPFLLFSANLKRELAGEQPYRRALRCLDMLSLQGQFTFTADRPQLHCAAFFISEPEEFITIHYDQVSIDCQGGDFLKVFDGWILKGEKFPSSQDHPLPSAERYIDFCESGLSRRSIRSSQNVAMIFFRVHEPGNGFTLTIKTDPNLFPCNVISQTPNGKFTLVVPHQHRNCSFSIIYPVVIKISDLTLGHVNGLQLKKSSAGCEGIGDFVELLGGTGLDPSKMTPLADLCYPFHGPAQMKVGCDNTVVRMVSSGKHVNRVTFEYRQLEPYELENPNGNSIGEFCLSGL

[11] = biological target: T2, Corticotropin-releasing factor receptor 2/Corticotropin-releasing factor-binding protein; assay: activators of CRF receptor 2 with binding protein – uHTS hits, confirmation (AID 602473); format: functional; settings: read-out: EC50_Mean
[12] = luciferase reporter signal suppression in cells – H4 neuroglioma cells, luminescence, dose response (AID 1990); format: functional, cell-based
[13] = biological target: Cytochrome P450 2C9 (Homo sapiens, UniProt P11712)
Sequence of Cytochrome P450 2C9 (P11712 whole entry): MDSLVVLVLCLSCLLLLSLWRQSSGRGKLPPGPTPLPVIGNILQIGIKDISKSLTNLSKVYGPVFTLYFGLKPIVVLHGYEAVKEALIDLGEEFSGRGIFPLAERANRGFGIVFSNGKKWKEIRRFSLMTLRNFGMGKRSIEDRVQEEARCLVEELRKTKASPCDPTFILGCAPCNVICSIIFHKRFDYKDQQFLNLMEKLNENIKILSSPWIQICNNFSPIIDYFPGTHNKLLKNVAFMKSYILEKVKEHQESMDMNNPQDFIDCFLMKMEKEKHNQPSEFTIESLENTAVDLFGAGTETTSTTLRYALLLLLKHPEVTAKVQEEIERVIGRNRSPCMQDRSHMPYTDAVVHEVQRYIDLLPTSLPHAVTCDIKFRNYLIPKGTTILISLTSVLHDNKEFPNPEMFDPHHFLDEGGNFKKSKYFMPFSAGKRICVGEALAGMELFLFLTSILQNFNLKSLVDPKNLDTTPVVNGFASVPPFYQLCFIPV

[14] = P. falciparum Dd2 growth inhibitors, dose response, SYBR Green, cherry-picked samples (AID 1159567); format: functional, cell-based

## O=C(NCCSc1ccccc1)c1cncc(Br)c1
[1]
  EC50: 5.57 µM (active)
[2]
  EC50: 9.26 µM (active)
[3]
  EC50: 30.1 µM (active)

## N#C/C(=C\c1ccc(Cl)cc1)c1nc2ccc[nH]c-2n1
[1]
  EC50: 14 µM (active)
[2]
  EC50: 44 µM (active)
[3]
  EC50: > 120 µM (not active)

## Cc1ccc2nc(SCC(=O)c3ccc(Cl)s3)[nH]c2c1
[4]
  EC50: > 150 µM (not active)

## CCC1SC(NC(=O)NC2CCCCC2)=NC1=O (stereo not drawn)
[1]
  EC50: 27.5 µM (active)
[2]
  EC50: 0.115 µM (active)
[3]
  EC50: 15.8 µM (active)

## COc1ccc2nc(O)c(CN(Cc3ccco3)Cc3nnnn3Cc3ccccc3)cc2c1
[5]
  IC50: > 79 µM (inactive)

## Cc1cccc(NC2=NN=C(c3c(C)[nH]c4ccccc34)CS2)c1
[6]; Streptococcus
  EC50: 6.58 µM (active)
[4]
  EC50: > 150 µM (not active)
[7]; Streptococcus sp. 'group A'
  EC50: 3.91 µM (active)

## CSc1ccc(C2c3[nH]c4ccccc4c3CCN2C(=O)c2ccnn2C)cc1 (stereo not drawn)
[8]
  EC50: 2.7 µM (active)
[9]
  EC50: > 150 µM (inactive)

## COc1cccc(NC(=O)CN(C)C(=O)CCCc2nc(O)c3ccccc3n2)c1
[5]
  IC50: > 79 µM (inactive)

## Cc1ccc(C(O)(C(=O)NNc2ccc3ccccc3n2)c2ccc(C)cc2)cc1
[6]
  EC50: 10.9 µM (active)
[6]; Streptococcus
  EC50: 12.1 µM (active)
[4]
  EC50: > 150 µM (not active) and 8.85 µM (active)
[7]
  EC50: 2.55 µM (active)
[7]; Streptococcus sp. 'group A'
  EC50: 3.72 µM (active)

## C=CCN1c2ccccc2[C@]23C[C@@H](C(=O)OC)N(C(=O)c4cc(C)oc4C)C2=NC(C(=O)OC)=C(C(=O)OC)[C@H]13
[1]
  EC50: > 120 µM (not active)
[2]
  EC50: > 120 µM (not active)
[3]
  EC50: 9.07 µM (active)

## COc1ccc(OC)c(NC(=O)NC2CCCc3ccccc32)c1 (stereo not drawn)
[6]; Streptococcus
  EC50: > 150 µM (not active)
[4]
  EC50: > 150 µM (not active)
[7]; Streptococcus sp. 'group A'
  EC50: > 150 µM (not active)

## NC(=O)N1CCC2(CC1)NC(=O)N(c1ccccc1)N2
[9]
  EC50: > 150 µM (inconclusive)

## COc1ccccc1-c1nnc(NC(=O)c2ccc(S(=O)(=O)N(C)CC3CCCO3)cc2)o1 (stereo not drawn)
[6]; Streptococcus
  EC50: 78.9 µM (active)
[4]
  EC50: > 150 µM (not active)
[7]; Streptococcus sp. 'group A'
  EC50: 19.5 µM (active)

## CCCC(=O)Nc1ccc(-c2nc3cc(C)c(C)cc3o2)c(O)c1
[10]
  IC50: > 47.1 µM (inactive)
[11]
  EC50: > 53 µM (inactive)

## O=C(c1ccc2c(c1)OCO2)N1CCC2(CC1)Oc1ccc(Cl)cc1C(=O)C21CC(c2cccnc2)=NO1 (stereo not drawn)
[8]
  EC50: 2.08 µM (active)
[9]
  EC50: > 150 µM (inactive)

## Cc1nnc(NC(=O)c2c(-c3ccccc3Cl)noc2C)s1
[8]
  EC50: 4.42 µM (active)
[9]
  EC50: 32.1 µM (active)

## COc1ccc(CN(C)C(=O)C(Cc2ccccc2)NC(=O)c2ccccc2)cc1F (stereo not drawn)
[5]
  IC50: > 79 µM (inactive)

## COc1ccc(-n2c(S)nnc2-c2cccc(C)c2[N+](=O)[O-])cc1
[8]
  EC50: 1.7 µM (active)
[9]
  EC50: > 150 µM (inactive)

## CCCOc1ccc(C2=NNC(=O)CC2)cc1
[12]
  EC50: < 0.1 µM (active)

## O=C(c1ccccc1)N1CCN(CC#Cc2ccccc2)CC1
[1]
  EC50: 9.34 µM (active)
[2]
  EC50: 6.67 µM (active)
[3]
  EC50: 8.44 µM (active)

## CNP(=O)(Oc1ccccc1)OC12CC3CC(CC(C3)C1)C2 (stereo not drawn)
[10]
  IC50: > 47.1 µM (inactive)
[11]
  EC50: > 53 µM (inactive)

## CC1CCN(C(=O)COC(=O)c2nnc(O)c3ccccc23)CC1
[5]
  IC50: > 79 µM (inactive)

## CCOC(=O)[C@@H]1[C@H]2COc3ccccc3[C@H]2N2C(=O)N(c3ccc(C(F)(F)F)cc3)C(=O)[C@]12C
[6]; Streptococcus
  EC50: > 150 µM (not active)
[4]
  EC50: 17 µM (inconclusive)
[7]; Streptococcus sp. 'group A'
  EC50: 9.78 µM (active)

## Clc1ccccc1Nc1ncnc(-n2cccc2)n1
[1]
  EC50: 1.7 µM (active)
[2]
  EC50: 6.97 µM (active)
[3]
  EC50: 0.153 µM (active)

## CSc1nnc2c(n1)c(C)nn2-c1ccc(C)cc1
[1]
  EC50: 16.1 µM (active)
[2]
  EC50: 4.22 µM (active)
[3]
  EC50: 0.114 µM (active)

## CCCCc1c(C)nn(-c2nnc3c4ccccc4n(C)c3n2)c1C
[1]
  EC50: 5.26 µM (active)
[2]
  EC50: 15.8 µM (active)
[3]
  EC50: > 120 µM (not active)

## O=c1c2ccccc2nc(-c2ccco2)n1Cc1ccccc1
[1]
  EC50: 8.08 µM (active)
[3]
  EC50: 34.1 µM (active)

## O=C(Nc1cccc(-c2ccc(N3CCOCC3)nn2)c1)c1ccccc1Cl
[6]; Streptococcus
  EC50: > 150 µM (not active)
[4]
  EC50: > 150 µM (not active)
[7]; Streptococcus sp. 'group A'
  EC50: > 150 µM (not active)

## C=CCn1c[n+](CC(=O)c2ccc(Br)s2)c2ccccc21
[8]
  EC50: > 38 µM (not active)
[9]
  EC50: > 160 µM (inactive)

## COc1ccc(Nc2nc(NN)nc(Nc3ccc(OC)cc3)n2)cc1
[6]; Streptococcus
  EC50: > 150 µM (not active)
[4]
  EC50: > 150 µM (not active)
[7]; Streptococcus sp. 'group A'
  EC50: 11.3 µM (active)

## CCOC(=O)c1sc2ncnc(NCC(c3cccs3)N(C)C)c2c1C (stereo not drawn)
[6]; Streptococcus
  EC50: 50.8 µM (active)
[4]
  EC50: > 150 µM (not active)
[7]; Streptococcus sp. 'group A'
  EC50: 7.15 µM (active)

## Cc1nn2c(nc(O)c3ccccc32)c1C=O
[8]
  EC50: 2.16 µM (active)
[13]
  AC50: 15.8 µM (inconclusive)
[9]
  EC50: > 160 µM (inactive)

## COc1ccc2nc(O)c(CN(CCc3ccccc3)Cc3nnnn3CC3CCCO3)cc2c1 (stereo not drawn)
[5]
  IC50: 14.6 µM (active)

## Cc1ccc(C2NC(=O)c3ccccc3N2)s1 (stereo not drawn)
[1]
  EC50: 10.5 µM (active)
[2]
  EC50: 11.8 µM (active)
[3]
  EC50: > 120 µM (not active)

## O=C(COc1ccccc1F)Nc1nc(-c2ccccn2)cs1
[5]
  IC50: > 79 µM (inactive)

## CC1CCN(CCCNC(=O)c2nnc(O)c3ccccc23)CC1
[5]
  IC50: 48.9 µM (inactive)

## C/C(=N\NC(=O)c1cccnc1)c1ccc(OC2OCCOC2Oc2ccc(/C(C)=N/NC(=O)c3cccnc3)cc2)cc1 (stereo not drawn)
[5]
  IC50: > 79 µM (inactive)

## O=C(N/N=C/c1ccncc1)c1ccc(COc2cccc3cccnc23)cc1
[5]
  IC50: 14.3 µM (active)

## Cc1nn(-c2ccccc2)c(C)c1/C=N/NC(=O)c1cc(C2CC2)[nH]n1
[5]
  IC50: > 79 µM (inactive)

## Cc1ccc2occ(/C=N/NC(=O)c3ccccc3O)c(=O)c2c1
[8]
  EC50: > 38 µM (not active)
[9]
  EC50: > 150 µM (inconclusive)

## COc1ccc(NC(=O)N(C)C[C@H]2OCc3ccccc3-c3c(n(C)c4ccccc34)C(=O)N([C@H](C)CO)C[C@@H]2C)c(OC)c1
[14]
  AC50: 7.42 µM (active)

## COc1ccc2c3c([nH]c2c1)[C@@H](CO)N(Cc1ccccc1F)CC31CCN(C(=O)C2CCOCC2)CC1
[14]
  AC50: 6.46 µM (active)

## CO[C@@H]1CN(C)C(=O)c2cc(NC(=O)Nc3cccc(Cl)c3)ccc2OC[C@@H](C)NC[C@@H]1C
[14]
  AC50: 9.36 µM (active)

## O=C1CN(S(=O)(=O)c2ccccc2)C[C@H]2[C@H](c3ccc(C#CCc4ccccc4)cc3)[C@@H](CO)N12
[14]
  AC50: 4.06 µM (active)

## COc1ccc(S(=O)(=O)N[C@@H]2CC[C@H](CCn3cc(-c4ccccc4F)nn3)O[C@@H]2CO)cc1
[14]
  AC50: 8.67 µM (active)

## CN(C)S(=O)(=O)c1cccc(NC(=O)COC(=O)c2ccc([N+](=O)[O-])o2)c1
[5]
  IC50: 10.3 µM (active)
